Seven compounds from ChEMBL document CHEMBL1147521 (Bioorg Med Chem Lett, 2004) can be followed below.

The structures appear in SMILES notation.

Experiment [1] addresses T1, Prostaglandin G/H synthase 1 (Ovis aries, UniProt P05979).
T1 sequence (P05979 whole entry): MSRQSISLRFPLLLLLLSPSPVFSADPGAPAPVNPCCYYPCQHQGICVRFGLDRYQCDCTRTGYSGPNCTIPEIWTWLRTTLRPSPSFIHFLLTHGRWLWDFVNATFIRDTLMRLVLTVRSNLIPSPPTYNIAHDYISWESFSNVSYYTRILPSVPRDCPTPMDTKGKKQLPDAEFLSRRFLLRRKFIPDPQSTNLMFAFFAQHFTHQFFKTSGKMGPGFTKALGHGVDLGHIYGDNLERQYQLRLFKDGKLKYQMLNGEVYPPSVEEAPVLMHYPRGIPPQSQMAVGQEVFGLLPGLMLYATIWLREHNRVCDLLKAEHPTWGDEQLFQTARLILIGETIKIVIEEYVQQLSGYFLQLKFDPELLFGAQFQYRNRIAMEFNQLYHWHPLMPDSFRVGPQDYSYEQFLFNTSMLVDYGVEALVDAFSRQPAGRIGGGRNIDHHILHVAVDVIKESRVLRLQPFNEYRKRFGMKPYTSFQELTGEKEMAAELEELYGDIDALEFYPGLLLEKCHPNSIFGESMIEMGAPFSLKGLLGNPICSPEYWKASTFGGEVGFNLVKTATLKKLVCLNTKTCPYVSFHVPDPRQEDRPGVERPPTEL
In words: In vitro inhibitory activity against prostaglandin G/H synthase 1 from ovine.

Experiment [2] has as its target T2, Prostaglandin G/H synthase 2 (Ovis aries, UniProt P79208).
T2 sequence (P79208 whole entry): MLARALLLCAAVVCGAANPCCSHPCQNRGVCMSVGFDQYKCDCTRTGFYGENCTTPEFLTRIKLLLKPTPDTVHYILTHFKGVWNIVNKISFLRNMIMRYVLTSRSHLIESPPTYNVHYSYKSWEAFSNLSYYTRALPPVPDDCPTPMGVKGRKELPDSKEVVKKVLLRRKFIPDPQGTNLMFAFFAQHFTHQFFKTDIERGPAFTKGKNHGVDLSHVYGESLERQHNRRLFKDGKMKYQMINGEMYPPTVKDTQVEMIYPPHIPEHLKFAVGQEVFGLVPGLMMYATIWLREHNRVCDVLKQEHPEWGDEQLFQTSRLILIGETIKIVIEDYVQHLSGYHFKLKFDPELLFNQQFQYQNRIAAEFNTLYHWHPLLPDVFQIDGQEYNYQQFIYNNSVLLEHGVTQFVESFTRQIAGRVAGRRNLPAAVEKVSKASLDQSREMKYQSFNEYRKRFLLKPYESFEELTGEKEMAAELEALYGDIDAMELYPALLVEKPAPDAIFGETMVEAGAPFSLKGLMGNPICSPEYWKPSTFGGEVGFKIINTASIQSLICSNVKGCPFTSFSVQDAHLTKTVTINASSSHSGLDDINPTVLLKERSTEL
In words: In vitro inhibitory activity against prostaglandin G/H synthase 2 from ovine.

With `CS(=O)(=O)c1ccc(C2=C(c3ccc(S(N)(=O)=O)cc3)C(=O)OC2)cc1`, the IC50 in experiment [1] and in experiment [2] was > 100 µM in each case.

On to `CS(=O)(=O)c1ccc(C2=C(c3ccc(S(N)(=O)=O)cc3)COC2=O)cc1`, for which the IC50 in experiment [1] and in experiment [2] was > 100 µM in each case. For the compound `CC(=O)NS(=O)(=O)c1ccc(C2=C(c3ccc(S(C)(=O)=O)cc3)C(=O)OC2)cc1`, the IC50 – broadly, the concentration that inhibits the measured activity by half – in experiment [1] is > 100 µM; in experiment [2] it was 0.05 µM.

For `CS(=O)(=O)c1ccc(C2=C(c3ccc(S(=O)(=O)N=[N+]=[N-])cc3)C(=O)OC2)cc1`, the IC50 in experiment [1] came to 31.5 µM; in experiment [2], 11 µM.

For `CC(=O)NS(=O)(=O)c1ccc(C2=C(c3ccc(S(C)(=O)=O)cc3)COC2=O)cc1`, the results for the IC50 in experiment [1] and in experiment [2] were 3.2 µM and 4.6 µM, respectively. For `CS(=O)(=O)c1ccc(C2=C(c3ccc(S(=O)(=O)N=[N+]=[N-])cc3)COC2=O)cc1`, in that order: > 100 µM and 3.1 µM. For the compound `CS(=O)(=O)c1ccc(C2=C(c3ccccc3)C(=O)OC2)cc1` [ROFECOXIB], the IC50 in experiment [2] was > 0.43 µM.
